The source of these data is ChEMBL document CHEMBL1909294, “Translating clinical findings into knowledge in drug safety evaluation--drug induced liver injury prediction system (DILIps)” (PLoS Comput Biol, 2011).

The test system of data set [1] is Hepatotoxicity.
The test system of data set [2] is Hepatotoxicity. This is another data set of the same source.
The subject of data set [3] is Hepatotoxicity. This is another data set of the same source.
The subject of data set [4] is Hepatotoxicity. This is another data set of the same source.
Data set [5] deals with Hepatotoxicity. This is another data set of the same source.
Data set [6] deals with Hepatotoxicity. The source holds these as a separate data set.
For data set [7], the system named is Hepatotoxicity. This is another data set of the same source.
In data set [8] the test system is Hepatotoxicity. This is another data set of the same source.
The subject of data set [9] is Hepatotoxicity. This is another data set of the same source.
Data set [10] deals with Hepatotoxicity. The source holds these as a separate data set.
In data set [11] the test system is Hepatotoxicity. The source holds these as a separate data set.
The subject of data set [12] is Hepatotoxicity. The source holds these as a separate data set.
The subject of data set [13] is Hepatotoxicity. The source holds these as a separate data set.
Data set [14] has as its system Hepatotoxicity. This is another data set of the same source.
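Throughout, for HepSE Combined Scores: combined hepatic side effect score as listed in the training data of the Drug Induced Liver Injury Prediction System (DILIps).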
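Throughout, for HepSE bilirubinemia: bilirubinemia hepatic side effect score drawn from the DILIps training data, a prediction system for drug-induced liver injury; call rule not given here.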
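Throughout, for HepSE cholecystitis: Cholecystitis-related hepatic side effect score drawn from the DILIps (drug-induced liver injury prediction) training data set; call rule not given here.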
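Throughout, for HepSE cholelithiasis: hepatic side effect score for cholelithiasis, drawn from the DILIps training data for predicting drug-induced liver injury; call rule not given here.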
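Throughout, for HepSE cirrhosis: cirrhosis hepatic side effect score taken from the DILIps (drug-induced liver injury prediction) training set; call rule not given here.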
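Throughout, for HepSE elevated liver function tests: hepatic side effect score for raised liver function tests, as recorded in the DILIps training set used for predicting drug-induced liver injury.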
Throughout, for HepSE hepatic failure: call rule not given here.
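Throughout, for HepSE hepatic necrosis: score of hepatic side effects for hepatic necrosis, drawn from the training data of DILIps, a prediction system for drug-induced liver injury; call rule not given here.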
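Throughout, for HepSE hepatitis: Hepatitis-related hepatic side effect score taken from the training data of DILIps, a prediction system for drug-induced liver injury; call rule not given here.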
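Throughout, for HepSE hepatomegaly: hepatic side effect score for hepatomegaly, taken from the training set of the DILIps drug-induced liver injury prediction system; call rule not given here.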
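Throughout, for HepSE jaundice: Jaundice-related hepatic side-effect score drawn from the training data of the DILIps (drug-induced liver injury prediction system); call rule not given here.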
Throughout, for HepSE liver disease: call rule not given here.
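Throughout, for HepSE liver fatty: hepatic side effect score for fatty liver, taken from the DILIps training set for predicting drug-induced liver injury; call rule not given here.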
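Throughout, for HepSE liver function tests abnormal: hepatic side effect score taken from the DILIps (drug-induced liver injury prediction system) training data, here covering abnormal liver function test findings.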

Turning to `CN(C)C(=N)N=C(N)N` [METFORMIN], in the data set on Hepatotoxicity [1] (Liver), the HepSE_cirrhosis stood at 0. Moreover, the HepSE_cholecystitis in the data set on Hepatotoxicity [2] (Liver) worked out at 0. Moreover, the HepSE_hepatic necrosis in the data set with Hepatotoxicity [3] (Liver) stood at 0. The HepSE_liver fatty in the data set with Hepatotoxicity [4] (Liver) is on record as 0. The molecule also displayed a HepSE_hepatic failure in the data set on Hepatotoxicity [5] (Liver) of 0. For the same molecule, the HepSE_hepatomegaly in the data set with Hepatotoxicity [6] (Liver) came out at 0. The “HepSE_elevated liver function tests” value in the data set with Hepatotoxicity [7] (Liver) was determined as 0. In the data set with Hepatotoxicity [8] (Liver), the “HepSE_Combined Scores” value stood at 2. The molecule also came in with a HepSE_hepatitis in the data set on Hepatotoxicity [9] (Liver) of 1. For the same molecule, the HepSE_liver disease with Hepatotoxicity [10] (Liver) amounted to 0. In the data set on Hepatotoxicity [11] (Liver), the HepSE_cholelithiasis came out at 0. Besides, the HepSE_jaundice with Hepatotoxicity [12] (Liver) was 0. Further, the “HepSE_liver function tests abnormal” value with Hepatotoxicity [13] (Liver) was found to be 1. This molecule also gave a HepSE_bilirubinemia with Hepatotoxicity [14] (Liver) of 0.

In turn, `O=C1CC[C@@]2(O)[C@H]3Cc4ccc(O)c5c4[C@@]2(CCN3CC2CC2)[C@H]1O5` [NALTREXONE] had a HepSE_cirrhosis in the data set with Hepatotoxicity [1] of 0. The HepSE_cholecystitis in the data set on Hepatotoxicity [2] stood at 0. For the same molecule, in the data set with Hepatotoxicity [3], the HepSE_hepatic necrosis amounted to 0. The HepSE_liver fatty in the data set with Hepatotoxicity [4] is 0. The molecule further displayed a HepSE_hepatic failure in the data set on Hepatotoxicity [5] of 0. For the same molecule, the HepSE_hepatomegaly in the data set on Hepatotoxicity [6] is 0. In addition, the “HepSE_elevated liver function tests” value in the data set on Hepatotoxicity [7] was determined as 0. The “HepSE_Combined Scores” value with Hepatotoxicity [8] is listed as 2. For the same molecule, in the data set with Hepatotoxicity [9], the HepSE_hepatitis is recorded as 1. The same molecule showed a HepSE_liver disease in the data set with Hepatotoxicity [10] of 0. The HepSE_cholelithiasis in the data set with Hepatotoxicity [11] worked out at 1. In the data set with Hepatotoxicity [12], the HepSE_jaundice is on record as 0. Moreover, the “HepSE_liver function tests abnormal” value in the data set on Hepatotoxicity [13] is 0. The molecule further displayed a HepSE_bilirubinemia in the data set on Hepatotoxicity [14] of 0.

In the data set on Hepatotoxicity [1], `CC[C@H](C)[C@@H]1NC(=O)[C@H](Cc2ccc(O)cc2)NC(=O)[C@@H](N)CSSC[C@@H](C(=O)N2CCC[C@H]2C(=O)N[C@@H](CC(C)C)C(=O)NCC(N)=O)NC(=O)[C@H](CC(N)=O)NC(=O)[C@H](CCC(N)=O)NC1=O` [OXYTOCIN] showed a HepSE_cirrhosis of 0. This molecule also had a HepSE_cholecystitis with Hepatotoxicity [2] of 0. For the same molecule, the HepSE_hepatic necrosis in the data set with Hepatotoxicity [3] turned out to be 0. The HepSE_liver fatty in the data set on Hepatotoxicity [4] amounted to 0. The HepSE_hepatic failure in the data set on Hepatotoxicity [5] was 0. Besides, the HepSE_hepatomegaly in the data set with Hepatotoxicity [6] came out at 0. The “HepSE_elevated liver function tests” value with Hepatotoxicity [7] was determined as 0. The “HepSE_Combined Scores” value in the data set with Hepatotoxicity [8] amounted to 0. This molecule displayed a HepSE_hepatitis with Hepatotoxicity [9] of 0. In the data set on Hepatotoxicity [10], this molecule displayed a HepSE_liver disease of 0. The same molecule registered a HepSE_cholelithiasis in the data set on Hepatotoxicity [11] of 0. For the same molecule, the HepSE_jaundice in the data set with Hepatotoxicity [12] worked out at 0. The “HepSE_liver function tests abnormal” value in the data set on Hepatotoxicity [13] is reported as 0. Also, the HepSE_bilirubinemia in the data set on Hepatotoxicity [14] turned out to be 0.

In the data set on Hepatotoxicity [1], `c1ccc2[nH]c(-c3cscn3)nc2c1` [THIABENDAZOLE] returned a HepSE_cirrhosis of 0. The molecule also displayed a HepSE_cholecystitis in the data set on Hepatotoxicity [2] of 0. This molecule came in with a HepSE_hepatic necrosis in the data set on Hepatotoxicity [3] of 0. The molecule further displayed a HepSE_liver fatty in the data set with Hepatotoxicity [4] of 0. Further, the HepSE_hepatic failure in the data set on Hepatotoxicity [5] amounted to 1. In the data set with Hepatotoxicity [6], the HepSE_hepatomegaly is on record as 0. For the same molecule, in the data set on Hepatotoxicity [7], the “HepSE_elevated liver function tests” value is recorded as 0. In addition, in the data set with Hepatotoxicity [8], the “HepSE_Combined Scores” value was 2. In the data set with Hepatotoxicity [9], this molecule returned a HepSE_hepatitis of 0. The HepSE_liver disease in the data set with Hepatotoxicity [10] amounted to 0. Besides, the HepSE_cholelithiasis in the data set with Hepatotoxicity [11] is on record as 0. This molecule came in with a HepSE_jaundice in the data set with Hepatotoxicity [12] of 1. Also, the “HepSE_liver function tests abnormal” value in the data set on Hepatotoxicity [13] came to 0. The same molecule displayed a HepSE_bilirubinemia with Hepatotoxicity [14] of 0.

As for AURANOFIN, the HepSE_cirrhosis in the data set on Hepatotoxicity [1] is listed as 0. Also, the HepSE_cholecystitis in the data set with Hepatotoxicity [2] was 0. For the same molecule, the HepSE_hepatic necrosis in the data set on Hepatotoxicity [3] is given as 0. In addition, the HepSE_liver fatty with Hepatotoxicity [4] was 0. The HepSE_hepatic failure in the data set with Hepatotoxicity [5] is 0. In the data set with Hepatotoxicity [6], this molecule yielded a HepSE_hepatomegaly of 0. The “HepSE_elevated liver function tests” value in the data set on Hepatotoxicity [7] worked out at 0. The “HepSE_Combined Scores” value with Hepatotoxicity [8] turned out to be 1. In the data set with Hepatotoxicity [9], this molecule registered a HepSE_hepatitis of 0. This molecule gave a HepSE_liver disease in the data set on Hepatotoxicity [10] of 0. For the same molecule, in the data set on Hepatotoxicity [11], the HepSE_cholelithiasis stood at 0. In the data set with Hepatotoxicity [12], the HepSE_jaundice was 1. The “HepSE_liver function tests abnormal” value in the data set on Hepatotoxicity [13] is listed as 0. The molecule further yielded a HepSE_bilirubinemia in the data set with Hepatotoxicity [14] of 0.

`COc1c2occc2cc2ccc(=O)oc12` [METHOXSALEN]: the HepSE_cirrhosis with Hepatotoxicity [1] is listed as 0. In the data set with Hepatotoxicity [2], this molecule gave a HepSE_cholecystitis of 0. The molecule also showed a HepSE_hepatic necrosis in the data set with Hepatotoxicity [3] of 0. Also, in the data set with Hepatotoxicity [4], the HepSE_liver fatty is 0. In the data set on Hepatotoxicity [5], this molecule gave a HepSE_hepatic failure of 0. The HepSE_hepatomegaly in the data set on Hepatotoxicity [6] was found to be 0. The “HepSE_elevated liver function tests” value in the data set with Hepatotoxicity [7] was 0. Also, the “HepSE_Combined Scores” value with Hepatotoxicity [8] came to 0. Also, the HepSE_hepatitis in the data set with Hepatotoxicity [9] came to 0. Further, the HepSE_liver disease in the data set on Hepatotoxicity [10] is 0. The HepSE_cholelithiasis with Hepatotoxicity [11] was 0. In the data set with Hepatotoxicity [12], this molecule yielded a HepSE_jaundice of 0. Besides, the “HepSE_liver function tests abnormal” value with Hepatotoxicity [13] was 0. In the data set with Hepatotoxicity [14], this molecule returned a HepSE_bilirubinemia of 0.

Take `CC(C)Cc1ccc(C(C)C(=O)O)cc1` (stereo not given) [IBUPROFEN]: in the data set on Hepatotoxicity [1], the HepSE_cirrhosis was 0. In the data set on Hepatotoxicity [2], this molecule yielded a HepSE_cholecystitis of 0. This molecule displayed a HepSE_hepatic necrosis in the data set with Hepatotoxicity [3] of 1. The HepSE_liver fatty with Hepatotoxicity [4] was 0. Moreover, in the data set with Hepatotoxicity [5], the HepSE_hepatic failure is given as 1. For the same molecule, the HepSE_hepatomegaly in the data set on Hepatotoxicity [6] is listed as 0. Further, the “HepSE_elevated liver function tests” value with Hepatotoxicity [7] is 0. The “HepSE_Combined Scores” value with Hepatotoxicity [8] is 5. The HepSE_hepatitis in the data set on Hepatotoxicity [9] worked out at 1. The molecule further displayed a HepSE_liver disease in the data set with Hepatotoxicity [10] of 0. The HepSE_cholelithiasis with Hepatotoxicity [11] came out at 0. This molecule also had a HepSE_jaundice in the data set on Hepatotoxicity [12] of 1. For the same molecule, the “HepSE_liver function tests abnormal” value in the data set with Hepatotoxicity [13] was 1. In addition, in the data set on Hepatotoxicity [14], the HepSE_bilirubinemia is reported as 0.

In the case of `Nc1ccn(C[C@@H](CO)OCP(=O)(O)O)c(=O)n1.O.O` [CIDOFOVIR], the HepSE_cirrhosis in the data set with Hepatotoxicity [1] is recorded as 0. The same molecule came in with a HepSE_cholecystitis with Hepatotoxicity [2] of 0. Moreover, the HepSE_hepatic necrosis with Hepatotoxicity [3] is given as 1. In addition, the HepSE_liver fatty in the data set on Hepatotoxicity [4] was found to be 0. The molecule further returned a HepSE_hepatic failure with Hepatotoxicity [5] of 0. Moreover, the HepSE_hepatomegaly in the data set with Hepatotoxicity [6] was determined as 1. Also, the “HepSE_elevated liver function tests” value with Hepatotoxicity [7] came out at 0. Moreover, the “HepSE_Combined Scores” value with Hepatotoxicity [8] is given as 4. Besides, in the data set on Hepatotoxicity [9], the HepSE_hepatitis was determined as 1. Besides, the HepSE_liver disease with Hepatotoxicity [10] came out at 0. Also, in the data set with Hepatotoxicity [11], the HepSE_cholelithiasis was 0. In the data set with Hepatotoxicity [12], this molecule had a HepSE_jaundice of 1. In the data set with Hepatotoxicity [13], the “HepSE_liver function tests abnormal” value was found to be 0. This molecule yielded a HepSE_bilirubinemia with Hepatotoxicity [14] of 0.

In turn, `Nc1ncnc2c1ncn2[C@@H]1O[C@H](CO)[C@@H](O)[C@H]1O` [ADENOSINE] displayed a HepSE_cirrhosis in the data set on Hepatotoxicity [1] of 0. The molecule further came in with a HepSE_cholecystitis in the data set with Hepatotoxicity [2] of 0. This molecule gave a HepSE_hepatic necrosis in the data set with Hepatotoxicity [3] of 0. For the same molecule, the HepSE_liver fatty with Hepatotoxicity [4] came out at 0. Moreover, the HepSE_hepatic failure in the data set on Hepatotoxicity [5] is 0. The molecule also gave a HepSE_hepatomegaly in the data set with Hepatotoxicity [6] of 0. In the data set on Hepatotoxicity [7], the “HepSE_elevated liver function tests” value is 0. For the same molecule, the “HepSE_Combined Scores” value in the data set with Hepatotoxicity [8] amounted to 0. In addition, in the data set on Hepatotoxicity [9], the HepSE_hepatitis was 0. Moreover, in the data set on Hepatotoxicity [10], the HepSE_liver disease was 0. In the data set with Hepatotoxicity [11], this molecule showed a HepSE_cholelithiasis of 0. In the data set with Hepatotoxicity [12], this molecule returned a HepSE_jaundice of 0. Also, the “HepSE_liver function tests abnormal” value in the data set with Hepatotoxicity [13] worked out at 0. This molecule showed a HepSE_bilirubinemia in the data set with Hepatotoxicity [14] of 0.

`C[C@]12COC(=O)C[C@@H]1CC[C@@H]1[C@@H]2CC[C@@]2(C)[C@H]1CC[C@]2(C)O` [OXANDROLONE] had a HepSE_cirrhosis in the data set on Hepatotoxicity [1] of 0. Further, in the data set with Hepatotoxicity [2], the HepSE_cholecystitis came out at 0. Besides, in the data set with Hepatotoxicity [3], the HepSE_hepatic necrosis is 1. In the data set with Hepatotoxicity [4], the HepSE_liver fatty is recorded as 0. In the data set on Hepatotoxicity [5], this molecule had a HepSE_hepatic failure of 0. Also, the HepSE_hepatomegaly with Hepatotoxicity [6] was determined as 0. The “HepSE_elevated liver function tests” value in the data set with Hepatotoxicity [7] worked out at 0. Further, the “HepSE_Combined Scores” value in the data set on Hepatotoxicity [8] is listed as 2. In the data set with Hepatotoxicity [9], the HepSE_hepatitis was 0. Moreover, the HepSE_liver disease in the data set with Hepatotoxicity [10] is 0. The same molecule returned a HepSE_cholelithiasis with Hepatotoxicity [11] of 0. Besides, in the data set on Hepatotoxicity [12], the HepSE_jaundice is 1. In the data set with Hepatotoxicity [13], the “HepSE_liver function tests abnormal” value came out at 0. The molecule further yielded a HepSE_bilirubinemia in the data set on Hepatotoxicity [14] of 0.
